Test results: patent US20220054469A1, “FARNESOID X RECEPTOR AGONISTS AND USES THEREOF” (Metacrine, Inc., priority 2018, published 2022)

What follows are molecules tested against T1, hFXR (Homo sapiens, UniProt Q96RI1) (assay: In Vitro FXR Assay (TK)). Conditions: CV-1 cells transfected with hFXR, hRXR, TK-ECRE-luc and pCMX-YFP; incubated with compound for 18 hrs; luminescence.
T1 construct: expressed in transfected cells; host or cells: CV-1 cells
T1 sequence (Q96RI1 1-486): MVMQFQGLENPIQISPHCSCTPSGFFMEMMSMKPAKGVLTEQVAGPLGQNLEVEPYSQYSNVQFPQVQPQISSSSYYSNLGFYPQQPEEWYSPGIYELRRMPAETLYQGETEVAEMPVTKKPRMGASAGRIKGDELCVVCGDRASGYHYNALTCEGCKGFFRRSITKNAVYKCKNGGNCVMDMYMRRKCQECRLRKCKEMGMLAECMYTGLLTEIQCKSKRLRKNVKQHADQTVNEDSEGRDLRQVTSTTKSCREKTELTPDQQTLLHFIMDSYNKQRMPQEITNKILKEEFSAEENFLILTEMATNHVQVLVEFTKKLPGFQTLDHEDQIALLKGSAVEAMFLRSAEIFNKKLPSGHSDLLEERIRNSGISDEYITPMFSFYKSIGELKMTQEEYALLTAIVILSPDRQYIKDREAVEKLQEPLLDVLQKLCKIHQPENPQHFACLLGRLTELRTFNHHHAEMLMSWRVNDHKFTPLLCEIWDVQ
T1 sequence (P19793 1-462 partner): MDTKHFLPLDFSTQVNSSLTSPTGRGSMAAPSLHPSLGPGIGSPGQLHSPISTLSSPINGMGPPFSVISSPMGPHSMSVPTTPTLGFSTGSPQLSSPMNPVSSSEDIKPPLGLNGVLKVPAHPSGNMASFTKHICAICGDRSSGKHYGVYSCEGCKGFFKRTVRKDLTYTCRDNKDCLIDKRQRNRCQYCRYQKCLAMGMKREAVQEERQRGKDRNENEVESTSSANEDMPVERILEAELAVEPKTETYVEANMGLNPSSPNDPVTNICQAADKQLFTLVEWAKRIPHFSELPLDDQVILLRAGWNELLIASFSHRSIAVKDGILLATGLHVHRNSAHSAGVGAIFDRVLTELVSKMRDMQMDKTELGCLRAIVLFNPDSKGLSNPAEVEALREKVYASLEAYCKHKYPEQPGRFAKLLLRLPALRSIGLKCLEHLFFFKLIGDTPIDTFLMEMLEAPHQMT
Assay type: cell-based
Procedure: Example B-1: In Vitro FXR Assay (TK)
CV-1 cells were seeded at a density of 2,000,000 cells in a T175 flask with DMEM+10% charcoal double-stripped FBS and incubated at 37° C. in 5% CO2 for 18 h (O/N).
After 18 h of incubation, the medium in the T175 flask was changed with fresh DMEM+10% charcoal super-stripped serum. In a polypropylene tube, 2500 μL OptiMEM (Life Technologies, Cat #31985-062) was combined with expression plasmids for hFXR, hRXR, TK-ECRE-luc and pCMX-YFP. The tube was then briefly vortexed and incubated at room temperature for 5 minutes. Transfection reagent (X-tremeGENE HP from Roche, Cat #06 366 236 001) was added to the OptiMEM/plasmid mixture vortexed and incubated at room temperature for 20 minutes. Following incubation, the transfection reagent/DNA mixture complex was added to cells in the T175 flask and the cells were incubated at 37° C. in 5% CO2 for 18 h (O/N).
Compounds were serially diluted in DMSO and added to transfected CV-1 cells. The cells were then incubated for 18 hrs. The next day cells were lysed and examined for luminescence.

Row | Structure (SMILES) | EC50
1 | CN(C)c1ccc(C23CCC(CN(c4cccc(-c5cnn(C(C)(C)C)c5)c4)C(=O)[C@H]4CC[C@H](CC(=O)O)CC4)(CC2)CC3)cn1 [Compound 2, trans-2-(4-((3-(1-(tert-Butyl)-1H-pyrazol-4-yl)phenyl)((4-(6-(dimethylamino)pyridin-3-yl)bicyclo[2.2.2]octan-1-yl)methyl)carbamoyl)cyclohexyl)acetic acid] | ≤ 50 nM
2 | COc1ccc(C23CCC(CN(c4cc(-c5cnn(C(C)C)c5)ccn4)C(=O)[C@H]4CC[C@H](CC(=O)O)CC4)(CC2)CC3)cc1C [Compound 1.01, trans-2-(4-((4-(1-Isopropyl-1H-pyrazol-4-yl)pyridin-2-yl)((4-(4-methoxy-3-methylphenyl)bicyclo[2.2.2]octan-1-yl)methyl)carbamoyl)cyclohexyl)acetic acid] | ≤ 50 nM
3 | COc1ccc(C23CCC(CN(c4cccc(-c5cnn(C(C)C)c5)c4)C(=O)[C@H]4CC[C@H](CC(=O)O)CC4)(CC2)CC3)cc1C [Compound 3.02, trans-2-(4-((3-(1-Isopropyl-1H-pyrazol-4-yl)phenyl)((4-(4-methoxy-3-methylphenyl)bicyclo[2.2.2]octan-1-yl)methyl)carbamoyl)cyclohexyl)acetic acid] | ≤ 50 nM
4 | COc1ccc(C23CCC(CN(C(=O)[C@@H]4CCC[C@@H](CC(=O)O)C4)c4cc(-c5cnn(C(C)C)c5)ccn4)(CC2)CC3)cc1C (relative stereo) [Compound 5.01, trans-2-(3-((4-(1-Isopropyl-1H-pyrazol-4-yl)pyridin-2-yl)((4-(4-methoxy-3-methylphenyl)bicyclo[2.2.2]octan-1-yl)methyl)carbamoyl)cyclohexyl)acetic acid] | 50 to 1000 nM
5 | COc1ccc([C@H]2CC[C@H](CN(c3cc(-c4cnn(C(C)(C)C)c4)ccn3)C(=O)[C@H]3CC[C@H](CC(=O)O)CC3)CC2)cc1C [Compound 2.05, 2-(trans-4-((4-(1-(tert-Butyl)-1H-pyrazol-4-yl)pyridin-2-yl)((trans-4-(4-methoxy-3-methylphenyl)cyclohexyl)methyl)carbamoyl)cyclohexyl)acetic acid] | 50 to 1000 nM
6 | COc1ccc(C23CCC(CN(c4cc(-c5cnc(C(C)C)s5)ccn4)C(=O)[C@H]4CC[C@H](CC(=O)O)CC4)(CC2)CC3)cc1C [Compound 4.16, trans-2-(4-((4-(2-Isopropylthiazol-5-yl)pyridin-2-yl)((4-(4-methoxy-3-methylphenyl)bicyclo[2.2.2]octan-1-yl)methyl)carbamoyl)cyclohexyl)acetic acid] | ≤ 50 nM
7 | COc1ccc([C@H]2CC[C@H](CN(c3cc(-c4cnc(C(C)C)s4)ccn3)C(=O)[C@H]3CC[C@H](CC(=O)O)CC3)CC2)cc1C [Compound 2.12, 2-(trans-4-((4-(2-Isopropylthiazol-5-yl)pyridin-2-yl)((trans-4-(4-methoxy-3-methylphenyl)cyclohexyl)methyl)carbamoyl)cyclohexyl)acetic acid] | ≤ 50 nM
8 | COc1ccc(C23CCC(CN(c4cc(-c5cnn(C(C)C)c5)c(F)cn4)C(=O)[C@H]4CC[C@H](CC(=O)O)CC4)(CC2)CC3)cc1C [Compound 2.10, trans-2-(4-((5-Fluoro-4-(1-isopropyl-1H-pyrazol-4-yl)pyridin-2-yl)((4-(4-methoxy-3-methylphenyl)bicyclo[2.2.2]octan-1-yl)methyl)carbamoyl)cyclohexyl)acetic acid] | ≤ 50 nM
9 | COc1ncc(C23CCC(CN(c4cccc(-c5cnn(C(C)(C)C)c5)c4)C(=O)[C@H]4CC[C@H](CC(=O)O)CC4)(CC2)CC3)cc1C [Compound 2.07, trans-2-(4-((3-(1-(tert-Butyl)-1H-pyrazol-4-yl)phenyl)((4-(6-methoxy-5-methylpyridin-3-yl)bicyclo[2.2.2]octan-1-yl)methyl)carbamoyl)cyclohexyl)acetic acid] | ≤ 50 nM
10 | COc1ncc(C23CCC(CN(c4cc(-c5cnn(C(C)(C)C)c5)ccn4)C(=O)[C@H]4CC[C@H](CC(=O)O)CC4)(CC2)CC3)cc1C [Compound 4.13, trans-2-(4-((4-(1-(tert-Butyl)-1H-pyrazol-4-yl)pyridin-2-yl)((4-(6-methoxy-5-methylpyridin-3-yl)bicyclo[2.2.2]octan-1-yl)methyl)carbamoyl)cyclohexyl)acetic acid] | ≤ 50 nM
11 | COc1ccc(C23CCC(CN(c4cc(-n5cc(C(C)C)cn5)ccn4)C(=O)[C@H]4CC[C@H](CC(=O)O)CC4)(CC2)CC3)cc1C [Compound 4.22, trans-2-(4-((4-(4-Isopropyl-1H-pyrazol-1-yl)pyridin-2-yl)((4-(4-methoxy-3-methylphenyl)bicyclo[2.2.2]octan-1-yl)methyl)carbamoyl)cyclohexyl)acetic acid] | 50 to 1000 nM
12 | COc1ccc(C23CCC(CN(C(=O)[C@@H]4CCC[C@H](CC(=O)O)C4)c4cc(-c5cnn(C(C)C)c5)ccn4)(CC2)CC3)cc1C (relative stereo) [Compound 5, cis-2-(3-((4-(1-isopropyl-1H-pyrazol-4-yl)pyridin-2-yl)((4-(4-methoxy-3-methylphenyl)bicyclo[2.2.2]octan-1-yl)methyl)carbamoyl)cyclohexyl)acetic acid] | ≤ 50 nM
13 | COc1ccc(C23CCC(CN(c4ccc(F)c(-c5cnn(C(C)C)c5)c4)C(=O)[C@H]4CC[C@H](CC(=O)O)CC4)(CC2)CC3)cc1C [Compound 2.09, trans-2-(4-((4-Fluoro-3-(1-isopropyl-1H-pyrazol-4-yl)phenyl)((4-(4-methoxy-3-methylphenyl)bicyclo[2.2.2]octan-1-yl)methyl)carbamoyl)cyclohexyl)acetic acid] | ≤ 50 nM
14 | COc1ccc(C23CCC(CN(c4cc(-c5cnn(C(C)C)c5)ccn4)C(=O)[C@H]4CC[C@@H](CC(=O)O)CC4)(CC2)CC3)cc1C [Compound 5.02, cis-2-(4-((4-(1-Isopropyl-1H-pyrazol-4-yl)pyridin-2-yl)((4-(4-methoxy-3-methylphenyl)bicyclo[2.2.2]octan-1-yl)methyl)carbamoyl)cyclohexyl)acetic acid] | 50 to 1000 nM
15 | COc1ccc(C23CCC(CN(c4cc(-c5ccn(C(C)C)n5)ccn4)C(=O)[C@H]4CC[C@H](CC(=O)O)CC4)(CC2)CC3)cc1C [Compound 4.23, trans-2-(4-((4-(1-Isopropyl-1H-pyrazol-3-yl)pyridin-2-yl)((4-(4-methoxy-3-methylphenyl)bicyclo[2.2.2]octan-1-yl)methyl)carbamoyl)cyclohexyl)acetic acid] | ≤ 50 nM
16 | COc1ccc(C23CCC(CN(c4cc(-n5cnc(C(C)C)c5)ccn4)C(=O)[C@H]4CC[C@H](CC(=O)O)CC4)(CC2)CC3)cc1C [Compound 4.25, trans-2-(4-((4-(4-Isopropyl-1H-imidazol-1-yl)pyridin-2-yl)((4-(4-methoxy-3-methylphenyl)bicyclo[2.2.2]octan-1-yl)methyl)carbamoyl)cyclohexyl)acetic acid] | 50 to 1000 nM
17 | COc1ccc(C23CCC(CN(c4cccc(-n5cnc(C6CC6)n5)c4)C(=O)[C@H]4CC[C@H](CC(=O)O)CC4)(CC2)CC3)cc1C [Compound 4.28, trans-2-(4-((3-(3-Cyclopropyl-1H-1,2,4-triazol-1-yl)phenyl)((4-(4-methoxy-3-methylphenyl)bicyclo[2.2.2]octan-1-yl)methyl)carbamoyl)cyclohexyl)acetic acid] | ≤ 50 nM
